Here are results for 33 molecules from patent US20250206724A1, “SUBSTITUTED 3-AMINO INDAZOLE DERIVATIVES AS KINASE INHIBITORS” (NERVIANO MEDICAL SCIENCES S.R.L., priority 2022, published 2025).

Counter-ions that a name gives are not always drawn.
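Also: compound preincubated 30 min with CDK11A-p58, then probe added and polarization (mP) read 15 min later, 0% displacement is probe plus enzyme, 100% is probe alone.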

This assay concerns the target T1, CDK11A (Homo sapiens, UniProt Q9UQ88).
T1 sequence (Q9UQ88 346-783): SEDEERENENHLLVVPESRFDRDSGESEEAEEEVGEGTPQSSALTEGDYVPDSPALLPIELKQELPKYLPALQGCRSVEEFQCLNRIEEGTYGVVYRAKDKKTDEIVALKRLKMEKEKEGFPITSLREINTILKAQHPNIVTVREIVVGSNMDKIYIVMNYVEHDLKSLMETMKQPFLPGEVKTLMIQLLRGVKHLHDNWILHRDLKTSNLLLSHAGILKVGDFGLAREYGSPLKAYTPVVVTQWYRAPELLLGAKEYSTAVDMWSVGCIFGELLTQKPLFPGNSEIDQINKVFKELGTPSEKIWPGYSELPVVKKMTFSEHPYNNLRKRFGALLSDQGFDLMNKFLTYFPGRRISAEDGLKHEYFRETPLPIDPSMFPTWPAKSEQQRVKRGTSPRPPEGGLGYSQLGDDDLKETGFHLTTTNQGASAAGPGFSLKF
To be noted: displacement of SNS-032-Atto590 probe (0.002 μM) from CDK11A-p58 (0.032 uM), fluorescence polarization.
Method: Biochemical Kinase Inhibition Assay on CDK11 in Displacement Assay Format
Displacement Assay Format
Fluorescence Polarization (FP) experiments were carried out at room temperature using no-binding black 384-well microplates (Corning, NY), in 50 mM Tris HCl, pH 8, 10 mM MgCl2, 1 mM DTT, 1 mM CHAPS in a final volume of 60 μl. The plate reader was the Pherastar microplate reader (BMG). Polarization values were read using excitation and emission wavelengths of 590 and 675 nm, respectively. All FP values are expressed as mP units.
Compounds were 4-folds serially diluted in 100% DMSO and added directly to the CDK11A-p58 solution using the pin tool (V & P Scientific): 0.2 ul of the different compound concentrations in 20 ul of enzyme solution. After an incubation of 30 minutes at r.t., 40 ul of probe solution were added. […] The Pherastar reading is performed after 15 minutes of all components incubation. For each assay, high controls (equivalent to 0% displacement) contain probe, CDK11A-p58, and 0.33% DMSO, whereas low controls (equivalent to 100% displacement) contain only probe and 0.33% DMSO. Controls are used for the Z′ and signal to background evaluation.
The data per each molecule are analyzed by Prism SW or an internally customized version of the SW package “Assay Explorer” which provides sigmoidal fittings of the ten-dilution curves for DC50 determination using a 4 parameters logistic equation:
where x is the logarithm of the inhibitor concentration, y is the response; y starts at bottom and goes to top with a sigmoid shape.
`COC(=O)c1ccc(Cl)c(-c2ccc3[nH]nc(NC(=O)[C@@H]4CCCNC4)c3c2)c1` [cpd 29, Methyl 4-chloro-3-(3-{[(3R)-piperidin-3-ylcarbonyl]amino}-1H-indazol-5-yl)benzoate hydrochloride]: the DC50 turned out to be 24 nM.

`O=C(Nc1n[nH]c2ccc(-c3ccc(F)cc3F)cc12)[C@@H]1CCCNC1` [cpd 30, (3R)-N-[5-(2,4-Difluorophenyl)-1H-indazol-3-yl]piperidine-3-carboxamide hydrochloride] displayed a DC50 of 38 nM.

`COc1ccc(-c2ccc3[nH]nc(NC(=O)[C@@H]4CCCNC4)c3c2)c(C(F)(F)F)c1` [cpd 31, (3R)-N-{5-[4-Methoxy-2-(trifluoromethyl)phenyl]-1H-indazol-3-yl}piperidine-3-carboxamide hydrochloride] yielded a DC50 of 94 nM.

For the molecule `Nc1ccc(Cl)c(-c2ccc3[nH]nc(NC(=O)[C@@H]4CCCNC4)c3c2)c1` [cpd 34, (3R)-N-[5-(5-Amino-2-chlorophenyl)-1H-indazol-3-yl]piperidine-3-carboxamide dihydrochloride], the DC50 came to 19 nM.

In turn, `O=C(Nc1n[nH]c2ccc(-c3cc(F)ccc3F)cc12)[C@@H]1CCCNC1` [cpd 35, (3R)-N-[5-(2,5-Difluorophenyl)-1H-indazol-3-yl]piperidine-3-carboxamide hydrochloride] yielded a DC50 of 35 nM.

As for `Cc1ccc(-c2ccc3[nH]nc(NC(=O)[C@@H]4CCCNC4)c3c2)c(C(F)(F)F)c1` [cpd 36, (3R)-N-{5-[4-Methyl-2-(trifluoromethyl)phenyl]-1H-indazol-3-yl}piperidine-3-carboxamide hydrochloride], the DC50 was 65 nM.

On to `COC(=O)c1ccc(Cl)c(-c2ccc3[nH]nc(NC(=O)[C@@H]4CCNC4)c3c2)c1` [cpd 37, Methyl 4-chloro-3-(3-{[(3R)-pyrrolidin-3-ylcarbonyl]amino}-1H-indazol-5-yl)benzoate hydrochloride], for which the DC50 stood at 26 nM.

As to `CC(=O)c1ccc(Cl)c(-c2ccc3[nH]nc(NC(=O)[C@@H]4CCNC4)c3c2)c1` [cpd 38, (3R)-N-[5-(5-Acetyl-2-chlorophenyl)-1H-indazol-3-yl]pyrrolidine-3-carboxamide hydrochloride], the DC50 stood at 16 nM.

For the molecule `CNC(=O)c1ccc(Cl)c(-c2ccc3[nH]nc(NC(=O)[C@@H]4CCNC4)c3c2)c1` [cpd 39, (3R)-N-{5-[2-Chloro-5-(methylcarbamoyl)phenyl]-1H-indazol-3-yl}pyrrolidine-3-carboxamide hydrochloride], the DC50 was determined as 44 nM.

`COC(=O)c1ccc(C#N)c(-c2ccc3[nH]nc(NC(=O)[C@@H]4CCCNC4)c3c2)c1` [cpd 40, Methyl 4-cyano-3-(3-{[(3R)-piperidin-3-ylcarbonyl]amino}-1H-indazol-5-yl)benzoate hydrochloride]: the DC50 stood at 45 nM.

Turning to `O=C(Nc1n[nH]c2ccc(-c3cc(O)ccc3Cl)cc12)[C@@H]1CCCNC1` [cpd 41, (3R)-N-[5-(2-Chloro-5-hydroxyphenyl)-1H-indazol-3-yl]piperidine-3-carboxamide hydrochloride], the DC50 is 33 nM.

Molecule `COC(=O)c1cc(-c2ccc3[nH]nc(NC(=O)[C@@H]4CCCNC4)c3c2)c(Cl)cc1Cl` [cpd 42, Methyl 2,4-dichloro-5-(3-{[(3R)-piperidin-3-ylcarbonyl]amino}-1H-indazol-5-yl)benzoate hydrochloride] showed a DC50 of 57 nM.

With `CCC(=O)c1ccc(Cl)c(-c2ccc3[nH]nc(NC(=O)[C@@H]4CCCNC4)c3c2)c1` [cpd 43, (3R)-N-[5-(2-Chloro-5-propanoylphenyl)-1H-indazol-3-yl]piperidine-3-carboxamide hydrochloride], the DC50 was determined as 19 nM.

With `O=C(Nc1n[nH]c2ccc(-c3ccc(C(F)(F)F)cc3Cl)cc12)[C@@H]1CCCNC1` [cpd 44, (3R)-N-{5-[2-Chloro-4-(trifluoromethyl)phenyl]-1H-indazol-3-yl}piperidine-3-carboxamide hydrochloride], the DC50 was 156 nM.

`O=C(Nc1n[nH]c2ccc(-c3ccc(Cl)cc3C(F)(F)F)cc12)[C@@H]1CCCNC1` [cpd 45, (3R)-N-{5-[4-Chloro-2-(trifluoromethyl)phenyl]-1H-indazol-3-yl}piperidine-3-carboxamide hydrochloride] had a DC50 of 88 nM.

For `O=C(Nc1n[nH]c2ccc(-c3cc(F)ccc3C(F)(F)F)cc12)[C@@H]1CCCNC1` [cpd 46, (3R)-N-{5-[5-Fluoro-2-(trifluoromethyl)phenyl]-1H-indazol-3-yl}piperidine-3-carboxamide hydrochloride], the DC50 stood at 37 nM.

`O=C(Nc1n[nH]c2ccc(-c3ccccc3Cl)cc12)[C@@H]1CCCNC1` [cpd 47, (3R)-N-[5-(2-Chlorophenyl)-1H-indazol-3-yl]piperidine-3-carboxamide hydrochloride] returned a DC50 of 38 nM.

As to `CC(C)c1ccc(Cl)c(-c2ccc3[nH]nc(NC(=O)[C@@H]4CCCNC4)c3c2)c1` [cpd 48, (3R)-N-{5-[2-Chloro-5-(propan-2-yl)phenyl]-1H-indazol-3-yl}piperidine-3-carboxamide hydrochloride], the DC50 stood at 310 nM.

In turn, `O=C(Nc1n[nH]c2ccc(-c3ccccc3)cc12)[C@@H]1CCCNC1` [cpd 49, (3R)-N-(5-Phenyl-1H-indazol-3-yl)piperidine-3-carboxamide hydrochloride] returned a DC50 of 78 nM.

As to `COC(=O)c1cc(-c2ccc3[nH]nc(NC(=O)[C@@H]4CCCNC4)c3c2)c(F)cc1F` [cpd 50, Methyl 2,4-difluoro-5-(3-{[(3R)-piperidin-3-ylcarbonyl]amino}-1H-indazol-5-yl)benzoate hydrochloride], the DC50 amounted to 164 nM.

As to `O=C(Nc1n[nH]c2ccc(-c3cc(F)ccc3Cl)cc12)[C@@H]1CCCNC1` [cpd 52, (3R)-N-[5-(2-Chloro-5-fluorophenyl)-1H-indazol-3-yl]piperidine-3-carboxamide hydrochloride], the DC50 is 42 nM.

In turn, `N#Cc1ccc(C#N)c(-c2ccc3[nH]nc(NC(=O)[C@@H]4CCCNC4)c3c2)c1` [cpd 53, (3R)-N-[5-(2,5-Dicyanophenyl)-1H-indazol-3-yl]piperidine-3-carboxamide hydrochloride] yielded a DC50 of 30 nM.

`COC(=O)c1cc(-c2ccc3[nH]nc(NC(=O)[C@@H]4CCNC4)c3c2)c(Cl)cc1N` [cpd 54, Methyl 2-amino-4-chloro-5-(3-{[(3R)-pyrrolidin-3-ylcarbonyl]amino}-1H-indazol-5-yl)benzoate dihydrochloride] came in with a DC50 of 102 nM.

The molecule `CNC(=O)c1ccc(C#N)c(-c2ccc3[nH]nc(NC(=O)[C@@H]4CCCNC4)c3c2)c1` [cpd 55, (3R)-N-{5-[2-Cyano-5-(methylcarbamoyl)phenyl]-1H-indazol-3-yl}piperidine-3-carboxamide hydrochloride] yielded a DC50 of 90 nM.

As to `CC(C)OC(=O)c1ccc(Cl)c(-c2ccc3[nH]nc(NC(=O)[C@@H]4CCCNC4)c3c2)c1` [cpd 56, Propan-2-yl 4-chloro-3-(3-{[(3R)-piperidin-3-ylcarbonyl]amino}-1H-indazol-5-yl)benzoate hydrochloride], the DC50 came out at 100 nM.

On to `COC(=O)c1ccc(Cl)c(-c2ccc3[nH]nc(NC(=O)[C@@H]4CCCNC4)c3c2)c1Cl` [cpd 57, Methyl 2,4-dichloro-3-(3-{[(3R)-piperidin-3-ylcarbonyl]amino}-1H-indazol-5-yl)benzoate hydrochloride], for which the DC50 amounted to 45 nM.

As to `O=C(Nc1n[nH]c2ccc(-c3cc(-c4ncon4)ccc3Cl)cc12)[C@@H]1CCCNC1` [cpd 58, (3R)-N-{5-[2-Chloro-5-(1,2,4-oxadiazol-3-yl)phenyl]-1H-indazol-3-yl}piperidine-3-carboxamide dihydrochloride], the DC50 worked out at 20 nM.

In the case of `O=C(Nc1n[nH]c2ccc(-c3cc(-c4nnco4)ccc3Cl)cc12)[C@@H]1CCCNC1` [cpd 59, (3R)-N-{5-[2-Chloro-5-(1,3,4-oxadiazol-2-yl)phenyl]-1H-indazol-3-yl}piperidine-3-carboxamide trifluoroacetate], the DC50 worked out at 57 nM.

`Cc1nc(-c2ccc(Cl)c(-c3ccc4[nH]nc(NC(=O)[C@@H]5CCCNC5)c4c3)c2)no1` [cpd 60, (3R)-N-{5-[2-Chloro-5-(5-methyl-1,2,4-oxadiazol-3-yl)phenyl]-1H-indazol-3-yl}piperidine-3-carboxamide dihydrochloride] registered a DC50 of 163 nM.

The molecule `N#Cc1ccc(Cl)c(-c2ccc3[nH]nc(NC(=O)C4CCNCC4)c3c2)c1` [cpd 61, N-[5-(2-Chloro-5-cyanophenyl)-1H-indazol-3-yl]piperidine-4-carboxamide hydrochloride] came in with a DC50 of 139 nM.

`CN(C)C1CC(C(=O)Nc2n[nH]c3ccc(-c4ccc(O)cc4Cl)cc23)C1` (stereo not drawn) [cpd 62, N-[5-(2-Chloro-4-hydroxyphenyl)-1H-indazol-3-yl]-3-(dimethylamino)cyclobutanecarboxamide hydrochloride] yielded a DC50 of 148 nM.

Regarding `CNC1CC(C(=O)Nc2n[nH]c3ccc(-c4ccc(O)cc4Cl)cc23)C1` (stereo not drawn) [cpd 63, N-[5-(2-Chloro-4-hydroxyphenyl)-1H-indazol-3-yl]-3-(methylamino)cyclobutanecarboxamide hydrochloride], the DC50 stood at 48 nM.

Take `CN1CCC(C(=O)Nc2n[nH]c3ccc(-c4c(F)cccc4Cl)cc23)CC1` [cpd 64, N-[5-(2-Chloro-6-fluorophenyl)-1H-indazol-3-yl]-1-methylpiperidine-4-carboxamide hydrochloride]: the DC50 amounted to 66 nM.
